The test system of series [1] is axenic iRFP-L. infantum amastigotes from bone marrow cells. The experiment in a line: Axenic amastigote viability assay (iRFP fluorescence, first screening). The series is classed as cell-based. As to conditions: Leishmania infantum, Bone marrow cell, cut-off 25 µM, 72 h, read-out: Axenic Amastigotes (concentration with inhibition). As for the experimental part: (§1) The 1,5- and 1,8-fused naphthyridine derivatives were evaluated as antileishmanial agents in assays using two forms of L. infantum amastigotes: axenic amastigotes recovered from bone marrow cells of infected BALB/c mice and intramacrophagic amastigotes obtained from splenic explants of the same subjects. The L. infantum strain used is a genetically modified strain previously engineered by our group to constitutively express the infrared protein iRFP from Rhodopseudomonas palustris bacteriophytochrome (iRFP L. infantum). This strain allows monitoring the viability of both forms of the parasite by quantifying the fluorescence emitted at 700 nm by the iRFP protein produced by living amastigotes.
(§2) Amastigotes obtained from mouse bone marrow cells were used to perform a first screening with the complete series of fused 1,5- and 1,8-naphthyridines. […] The toxicity of these selected compounds was assessed in non-infected splenic cells and the cytotoxic concentration (CC50) value obtained was used to calculate the selective index (SI). The oral tolerability of these same compounds was tested by calculating the viability of murine intestinal organoids exposed to two concentrations (50 and 25 µM).
To obtain iRFP-L. infantum axenic amastigotes, femur and tibia were carefully cut at both ends, and marrow cells were removed by passing PBS through the medullary cavity with a 29G needle. The bone marrow cell suspension was filtered through a 100 µm cell strainer and centrifuged at 3500× g for 10 min at room temperature. After centrifugation, cells were resuspended in amastigote culture medium: 15 mM KCl; 136 mM KH2PO4; 10 mM K2HPO4·3H2O; 0.5 mM MgSO4. 7H2O; 24 mM NaHCO3; 22 mM glucose; 1 mM glutamine, 1xRPMI 1640 vitamin mix (Sigma-Aldrich, Merck, Darmstadt, Germany), 10 mM folic acid, 100 mM adenosine, 1xRPMI amino acid mix (Sigma-Aldrich, Merck, Darmstadt, Germany), 5 mg/mL hemin, antibiotic cocktail, 25 mM MES and 10% FBS, and incubated at 37 °C.
To test the antileishmanial effect of naphthyridines on axenic amastigotes, 40 μL of a suspension containing 3 × 10^4 iRFP-L. infantum parasites per well were incubated with another 40 μL of the drugs dilutions in amastigote culture medium with 7.5% FBS. Incubations were performed in 384-well black microtiter plates with an optical bottom at 37 °C and 5% CO2 for 72 h. Solutions of 0.1% (v/v) DMSO and 10 μM AMB were used as negative and positive controls, respectively. The assays were performed by triplicate.
(§3) The viability of axenic and intramacrophage amastigotes was calculated measuring the fluorescence emitted at 700 nm by the iRFP protein from live parasites and recorded by an Odyssey infrared imaging system (Li-Cor, NE, USA). The fluorescence emitted by the negative control wells was considered 100% viability, whereas the fluorescence emitted by the positive control wells, was adjusted to 0% viability.

Series [2] deals with intramacrophagic iRFP-L. infantum amastigotes from murine spleens. The experiment in a line: Ex vivo intramacrophagic amastigote viability assay (iRFP fluorescence). The settings on record: for EC50: Leishmania infantum, ex vivo murine splenic explants, 72 h, read-out: Intracellular Amastigotes EC50; for antileishmanial activity against Leishmania amastigotes (in words): summary in discussion. Format: cell-based, Leishmania infantum. As for the experimental part: as §1, §2
Intramacrophagic amastigotes were obtained by cutting spleens into small pieces that were incubated for 25 min with 0.5 mL of collagenase D (2 mg/mL) (Merck, Darmstadt, Germany) dissolved in 4.5 mL buffer (10 mM HEPES, pH 7.4, 150 mM NaCl, 5 mM KCl, 1 mM MgCl2 and 1.8 mM CaCl2). The cell suspension was filtered through a 100 µm cell strainer. After erythrocyte lysis (150 mM NH4Cl, 1 mM KHCO3, 0.1 mM EDTA), splenocytes were centrifuged three times at 500× g for 7 min at 4 °C, with PBS washes between each centrifugation. The splenocyte suspension containing intramacrophagic amastigotes was resuspended in RPMI medium (Gibco, Fisher Scientific, Waltham, MA, USA) supplemented with 20% FBS, 1 mM sodium pyruvate, 24 mM NaHCO3, 2 mM L-glutamine, 1× RPMI vitamins, 25 mM HEPES and antibiotic cocktail.
For the ex vivo intramacrophagic amastigote assay, 40 μL of one-half or one-third serial dilutions of each diluted in supplemented RPMI medium, were added to black 384-well optical-bottom black plates containing 40 μL of murine splenocytes obtained as described above. Positive controls (containing 10 μM of AMB) and negative controls (containing 0.1% v/v DMSO) were included. The plates were incubated at 37 °C and 5% CO2, for a maximum period of 72 h and the assays were performed by triplicate.
as §3
Fluorescence emitted by intramacrophage amastigotes were plotted against the drug concentration using the nonlinear fit analysis provided by the Sigma Plot 10.1 statistical package to obtain EC50 values.

Series [3] relates to recombinant human DNA topoisomerase IB (hTopIB). Further details: method as in PMID 31229877, PMID 32279049, PMID 33962152; dose or concentration left out as unconfirmed. The settings on record: cited from earlier work.
A further series has as its system two cancer cell lines. Details: method as in PMID 31229877, PMID 32279049, PMID 33962152. The settings on record: cited from earlier work.
Series [4] in a line: Cytotoxicity in uninfected murine splenic cells (alamarBlue). Format: cell-based, mouse. The settings on record: mouse; uninfected splenic cells, 72 h, alamarBlue; read-out: Mouse Splenic Macrophages CC50. The procedure:
(§4) Amastigotes obtained from mouse bone marrow cells were used to perform a first screening with the complete series of fused 1,5- and 1,8-naphthyridines. […] The toxicity of these selected compounds was assessed in non-infected splenic cells and the cytotoxic concentration (CC50) value obtained was used to calculate the selective index (SI). The oral tolerability of these same compounds was tested by calculating the viability of murine intestinal organoids exposed to two concentrations (50 and 25 µM). In order to assess the in vitro safety of the naphthyridines, cytotoxicity assays were carried out in ex vivo splenic explants from uninfected mice, which were prepared as previously described to obtain intramacrophagic amastigotes. Cells were seeded at a density of 1 × 10^6 cells per well in 96-well plates containing the prediluted compounds and incubated at 37 °C and 5% CO2 during 72 h. AlamarBlue assay (Invitrogen, Fisher Scientific, Waltham, MA, USA) was used to estimate cell viability following manufacturer’s recommendations. The assays were performed by triplicate. Absorbance of viable cells vs. compound concentrations were fitted by nonlinear analysis using the Sigma Plot 10.1 statistical package to calculate the cytotoxic concentration 50 (CC50) values. Selectivity index (SI) was calculated as the ratio between CC50 and the EC50 values of intramacrophagic amastigotes.

For series [5], the system named is mouse splenic macrophages. The series is described as above. Format: cell-based. The settings on record: summary in discussion. As for the experimental part: as §4
Series [6] has as its system leishmanial DNA topoisomerase IB (LdTopIB). The experiment in a line: Relaxation of supercoiled plasmid DNA assay. As to conditions: 100 μM of compounds, 1 min at 37 °C, in words. Format: biochemical, Leishmania. The procedure: page 2: DNA DMSO 6b8a8b8c9b10b11a13a13b14a7c8d15b Relaxationof supercoiled plasmid DNA assay. Each reaction contains one unit of purified leishmanial DNA topisomeraseIB enzyme (LdTopIB), 100 μM ofcompounds, 0.5μg of supercoiled […], 10 mM Tris-HCl buffer pH 7.5, 5 mM MgCl 2, 0.1 mM EDTA, 15 μg/mL bovine serum albumin, 150 mM KCl. Reaction mixtures were incubated 1 min at 37 °C and stopped by the addition of 4 μL loading buffer (5% sarkosyl, 0.12% bromophenol blue, 25% glycerol). The topoisomerswere resolved in 1% agarose gels by electrophoresis in 0.1 M Tris borate EDTA buffer (pH 8.0) at 2 V/cm for 16 h and visualized with UV illumination after ethidium bromide (0.5μg/mL) staining. […]

The values that follow come from PMC10780244, “Antileishmanial Effect of 1,5- and 1,8-Substituted Fused Naphthyridines” (Molecules, 2023).

Each structure is given as a SMILES string.

For `c1ccc([C@@H]2c3ncccc3NC3c4ccccc4OCC32)cc1` (stereo partly shown) [Compound 4a], in series [1], the minimal effective concentration was > 25 µM.
Same read-out and setting: as for `COc1ccc2c(n1)[C@@H](c1ccccc1)C1COc3ccccc3C1N2` (stereo partly shown) [Compound 4c], the figure is > 25 µM; as for `c1ccc(-c2c3c(nc4cccnc24)-c2ccccc2OC3)cc1` [Compound 5a], > 25 µM; as for `Brc1ccc2nc3c(c(-c4ccccc4)c2n1)COc1ccccc1-3` [Compound 5b], > 25 µM.
On to `COc1ccc2nc3c(c(-c4ccccc4)c2n1)COc1ccccc1-3` [Compound 5c], for which, in series [1], the minimal effective concentration is > 25 µM.
Same read-out and setting: with `O=C1Oc2ccccc2C2Nc3cccnc3[C@@H](c3ccccc3)C12` (stereo partly shown) [Compound 6a] the figure was > 25 µM; with `COc1ccc2c(n1)[C@@H](c1ccccc1)C1C(=O)Oc3ccccc3C1N2` (stereo partly shown) [Compound 6c], > 25 µM; with `O=c1oc2ccccc2c2nc3cccnc3c(-c3ccccc3)c12` [Compound 7a], > 25 µM.
Still for that read-out and setting: as for `O=c1oc2ccccc2c2nc3ccc(Br)nc3c(-c3ccccc3)c12` [Compound 7b], the figure is > 25 µM.
Turning to `Cc1ccc(S(=O)(=O)N2Cc3c(nc4cccnc4c3-c3ccccc3)-c3ccccc32)cc1` [Compound 9a], the minimal effective concentration in series [1] was > 25 µM.
In the case of `COc1ccc2nc3c(c(-c4ccccc4)c2n1)CN(S(=O)(=O)c1ccc(C)cc1)c1ccccc1-3` [Compound 9c], the minimal effective concentration in series [1] is > 25 µM. The EC50 in series [2] was > 20 µM.
For `Cc1ccc(S(=O)(=O)N2Cc3c(nc4ccc(Br)nc4c3-c3ccccc3)-c3ccccc32)cc1` [Compound 9d], in that order: > 25 µM and > 20 µM.
For the molecule `c1ccc([C@@H]2c3cccnc3NC3c4ccccc4OCC32)cc1` (stereo partly shown) [Compound 10a], the “inhibitory effect on DNA relaxation activity of hTopIB” value in series [3] is given as “had an inhibitory effect on DNA relaxation activity”. In addition, the minimal effective concentration in series [1] was > 25 µM. Also, in series [2], the EC50 is > 20 µM and the “antileishmanial activity against Leishmania amastigotes (in words)” value was “not effective against Leishmania amastigotes”. Moreover, the “cytotoxic effects on two cancer cell lines (concentration range)” value in the series on two cancer cell lines was 1 to 15 µM.
As for `Cc1ccc2c(c1)C1Nc3ncccc3[C@@H](c3ccccc3)C1CO2` (stereo partly shown) [Compound 10c], the minimal effective concentration in series [1] was > 25 µM. The EC50 in series [2] is > 20 µM.
In the same order, the values of `Fc1ccc2c(c1)-c1nc3ncccc3c(-c3ccccc3)c1CO2` [Compound 11b] are > 25 µM and > 20 µM.
As for `COc1ccc(-c2c3c(nc4ncccc24)-c2ccccc2OC3)cc1` [Compound 11c], the minimal effective concentration in series [1] is > 25 µM. The EC50 in series [2] is > 20 µM.
For `O=C1Oc2ccccc2C2Nc3ncccc3[C@@H](c3ccccc3)C12` (stereo partly shown) [Compound 12a], in that order: > 25 µM and > 20 µM.
In the same order, the values of `O=C1Oc2ccccc2C2Nc3ncc(Br)cc3[C@@H](c3ccccc3)C12` (stereo partly shown) [Compound 12b] are > 25 µM and > 20 µM.
In the case of `O=c1oc2ccc(F)cc2c2nc3ncccc3c(-c3ccccc3)c12` [Compound 13c], the minimal effective concentration in series [1] was > 25 µM. In addition, the EC50 in series [2] was > 20 µM.
On to `Cc1ccc(S(=O)(=O)N2Cc3c(nc4ncccc4c3-c3ccccc3)-c3ccccc32)cc1` [Compound 15a], for which the “inhibitory effect on DNA relaxation activity of hTopIB” value in series [3] is “had an inhibitory effect on DNA relaxation activity”. In series [4], the CC50 at 72 h is 8.78 ± 2.21 µM. Besides, the “toxicity (in words)” value in series [5] was “significant toxicity”. Moreover, in series [1], the minimal effective concentration was < 25 µM. For the same molecule, in series [2], the EC50 was 67.4 ± 9.78 µM and the “antileishmanial activity against Leishmania amastigotes (in words)” value is “significant antileishmanial activity”. In addition, the SI in series [2] (ratio CC50 (splenic macrophages) / EC50 (intramacrophagic amastigotes)) stood at 0.1. Moreover, the LdTopIB inhibitory activity entry in series [6] is on record as “did not show leishmanial DNA topoisomerase IB (LdTopIB) inhibitory activity”. In the series with two cancer cell lines, the “cytotoxic effects on two cancer cell lines (concentration range)” value is 1 to 15 µM.

Broadly, the EC50 is the midpoint of the concentration-response curve. One may read the CC50 as the concentration at which the toxic effect on the cells reaches its halfway point.
